Results taken from publication PMC10126150 (2023).

Legend:
Assay in all cases: Cy3/quencher fluorescence plate reader
Conditions in all cases: 120 mM Na+, 5 mM K+, 1 mM Mg2+, 1 mM Ca2+; 20 mM Tris-HCl, 25 °C; affinity similar to glucose
[1] = system: glu-4 ADS construct (DNA, aptamer, boronic acid-modified U (Z, T in the source) at 5,7,8,12,15,19,24,26 of strand 1 (MS of Bio-NNGmin: seven of eight coupled)) CCCGTGTTAGATAGTAAGTGCAATCTCGGCTTTCTGTCTCTTATACACATCTGACGCTGCCGACGA/TCGTCGGCAGCGTCAGATGTGTATAAGAGACAGTTTTTTTTTTTTTTTTTTTTTTTTTACCAGGAGCTTC
[2] = system: glu-1 ADS construct (DNA, aptamer, boronic acid-modified U (Z, T in the source) at 5,7,8,12,15,19,24,26 of strand 1 (MS of Bio-NNGmin: seven of eight coupled)) CCCGTGTTAGATAGTAAGTGCAATCTCGGCTTTCTGTCTCTTATACACATCTGACGCTGCCGACGA/TCGTCGGCAGCGTCAGATGTGTATAAGAGACAGTTTTTTTTTTTTTTTTTTTTTTTTTTAGGGCAGGCTC
[3] = system: glu-2 ADS construct (DNA, aptamer, boronic acid-modified U (Z, T in the source) at 5,7,8,12,15,19,24,26 of strand 1 (MS of Bio-NNGmin: seven of eight coupled)) CCCGTGTTAGATAGTAAGTGCAATCTCGGCTTTCTGTCTCTTATACACATCTGACGCTGCCGACGA/TCGTCGGCAGCGTCAGATGTGTATAAGAGACAGTTTTTTTTTTTTTTTTTTTTTTTTTCAGGACAGGCTC
[4] = system: glu-3 ADS construct (DNA, aptamer, boronic acid-modified U (Z, T in the source) at 5,7,8,12,15,19,24,26 of strand 1 (MS of Bio-NNGmin: seven of eight coupled)) CCCGTGTTAGATAGTAAGTGCAATCTCGGCTTTCTGTCTCTTATACACATCTGACGCTGCCGACGA/TCGTCGGCAGCGTCAGATGTGTATAAGAGACAGTTTTTTTTTTTTTTTTTTTTTTTTTTACCAGGAGCTC

binding [1]: yes
binding [2]: yes
binding [3]: yes
binding [4]: yes
Structure (SMILES): OCC1(O)OC[C@@H](O)[C@@H](O)[C@@H]1O (stereo partly shown)
